{"source": "patent US6303366A", "about": "“Biodegradation of the gasoline oxygenates” (Envirogen, Inc., priority 1999, dated 2001)", "key": {"[1]": {"test_system": "strain ENV425", "assay": "Growth studies on MTBE pathway intermediates", "format": "cell-based, Nocardia"}, "[2]": {"test_system": "ENV425", "assay": "[^14 C]MTBE assay", "format": "cell-based, Nocardia"}, "[3]": {"test_system": "M. vaccae JOB5", "assay": "[^14 C]MTBE assay", "format": "cell-based, Mycobacterium vaccae", "settings": "propane-grown, OD550 1.0, overnight, 0.5 μCi [^14 C]MTBE (2 μM MTBE)"}, "[4]": {"test_system": "TXR mixed culture of naturally-occurring propane-oxidizing bacteria", "assay": "[^14 C]MTBE assay", "format": "cell-based", "settings": "propane-grown, OD550 1.0, overnight, 0.5 μCi [^14 C]MTBE (2 μM MTBE)"}, "[5]": {"test_system": "ENV425", "assay": "Degradation of tetrahydrofuran", "format": "cell-based, Nocardia", "settings": "propane-grown; OD550 2.0; 40 mg/L; 48 hours; room temperature", "description": "(§1) To test the ability of propane oxidizing bacteria to degrade other environmentally-significant ether pollutants, ENV425 and a mixed culture of propane oxidizing bacteria from a laboratory bioreactor were incubated with tetrahydrofuran, and the degradation of tetrahydrofuran was measured after 48 hours. Cells of ENV425 and a mixed bioreactor culture of propane-oxidizing bacteria (termed \"TXR\") were grown in BSM medium with propane as the sole source of carbon and energy, collected by centrifugation, washed with BSM, and suspended in BSM to an optical density at 550 nm of 2.0. Five ml of the cell suspensions were added to 15 mL serum vials, and the vials were sealed with Teflon-lined septa and crimp tops. Vials containing BSM but no cells served as controls. Tetrahydrofuran was injected through the septa to create a final liquid concentration of 40 mg/L. The vials were then incubated at room temperature for 48 hours and analyzed by gas chromatography of subsamples of the vial headspace gas. Gas chromatography was performed as described for MTBE analysis."}, "[6]": {"test_system": "mixed culture of propane-oxidizing bacteria (TXR)", "assay": "Degradation of tetrahydrofuran", "format": "cell-based", "settings": "propane-grown; OD550 2.0; 40 mg/L; 48 hours; room temperature", "description": "as §1"}, "[7]": {"test_system": "ENV425", "assay": "Gas chromatography degradation assay, washed cells", "format": "cell-based, Nocardia", "settings": "30 mg/l, 24 hours, OD550 1.0", "description": "(§2) Propane-oxidizing microorganisms were grown as described above on either propane, isopropanol, ethanol or acetone, to a cell density of OD550≥0.5. The cells were then collected by centrifugation, washed with BSM, and suspended to an OD550 of 1.0. […] The vials were sealed with Teflon-lined septa and crimp seals and incubated with shaking (250 rpm) at 30° C. for at least 24 hr. Control samples were prepared by adding 50 μl of 10 mM HgCl2 to replicate vials. HgCl2 killed the microorganisms present in the vials allowing these vials to serve as controls. At pre-determined time points, 50 μl of 10 mM HgCl2 were added to the incubating sample to stop the reaction or a sub-sample of the incubating sample was removed for analysis. Degradation of MTBE, ETBE or tert-butyl alcohol (TBA) was measured by gas chromatography.\n(§3) Gas chromatography was performed by first removing cells from the samples by centrifugation of the sample vial or the sub-sample. A pre-sealed 2-ml autosampler vial was partially evacuated by inserting a syringe needle through the septa and removing 500 μl of air. Five hundred μl of the clear supernatant fraction of the cell culture were then injected into the vial. The samples were then analyzed by injecting 1 μl of the sample directly into a Varians Model 3400 gas chromatograph equipped with a 30 m Vocol capillary column (Supelco) and a flame ionization detector. The column, injector, and detector were maintained isocratically at 80° C., 200° C., and 225° C., respectively. Standard curves of each compound were generated with aqueous standards of 10 ppm, 25 ppm, 50 ppm, and 100 ppm."}, "[8]": {"test_system": "ENV420", "assay": "Gas chromatography degradation assay, washed cells", "format": "cell-based", "settings": "30 mg/l, 24 hours, OD550 1.0", "description": "as §2, §3"}, "[9]": {"test_system": "M. vaccae JOB5", "assay": "Gas chromatography degradation assay, washed cells", "format": "cell-based, Mycobacterium vaccae", "settings": "for % Degraded: 30 mg/l, 24 hours, OD550 1.0", "description": "as §2, §3"}}, "data": [{"smiles": "CC(=O)CO", "note": "[hydroxyacetone]", "values": [{"measurement": "growth of strain ENV425 on the substance", "setting": "[1]", "value": "does occur"}]}, {"smiles": "CC(=O)O", "note": "[acetic acid]", "values": [{"measurement": "growth of strain ENV425 on the substance", "setting": "[1]", "value": "does occur"}]}, {"smiles": "C=C(C)C(=O)O", "note": "[methacrylic acid]", "values": [{"measurement": "growth of strain ENV425 on the substance", "setting": "[1]", "value": "grows on"}]}, {"smiles": "[14CH3]O[14C]([14CH3])([14CH3])[14CH3]", "note": "[[^14 C]MTBE]", "values": [{"measurement": "added [^14 C]MTBE converted to ^14 CO2", "setting": "[2]; env425", "value": "> 65", "unit": "%"}, {"measurement": "Percent of added [^14 C] in CO2 fraction", "setting": "[2]; propane-grown, OD550 5.0, overnight, 0.5 μCi [^14 C]MTBE (2 μM MTBE)", "value": 41, "unit": "%"}, {"measurement": "Percent of added [^14 C] in particulate fraction", "setting": "[3]", "value": 0, "unit": "%"}, {"measurement": "Percent of added [^14 C] in CO2 fraction", "setting": "[3]; mean (SD) of three", "value": "27(2) Percent"}, {"measurement": "Percent of added [^14 C] in liquid fraction", "setting": "[3]; mean (SD) of three", "value": "71(2) Percent"}, {"measurement": "Percent of added [^14 C] in particulate fraction", "setting": "[4]", "value": 0, "unit": "%"}, {"measurement": "Percent of added [^14 C] in CO2 fraction", "setting": "[4]; mean (SD) of three", "value": "53(1) Percent"}, {"measurement": "Percent of added [^14 C] in liquid fraction", "setting": "[4]; mean (SD) of three", "value": "46(1.5) Percent"}]}, {"smiles": "CC(O)C(=O)O", "note": "(stereo not shown) [lactic acid]", "values": [{"measurement": "growth of strain ENV425 on the substance", "setting": "[1]", "value": "grows on"}]}, {"smiles": "CC(O)(CO)C(=O)O", "note": "(stereo not shown) [2,3-dihydroxy-2-methyl propionic acid]", "values": [{"measurement": "growth of strain ENV425 on the substance", "setting": "[1]", "value": "grows on"}]}, {"smiles": "CC(C)O", "note": "[2-propanol]", "values": [{"measurement": "growth of strain ENV425 on the substance", "setting": "[1]", "value": "does occur"}]}, {"smiles": "C1CCOC1", "note": "[tetrahydrofuran]", "values": [{"measurement": "tetrahydrofuran degraded", "setting": "[5]", "value": 100, "unit": "%"}, {"measurement": "tetrahydrofuran degraded", "setting": "[6]", "value": 100, "unit": "%"}]}, {"smiles": "CC(C)(O)C(=O)O", "note": "[HIBA, 2-hydroxy isobutyric acid]", "values": [{"measurement": "growth of strain ENV425 on the substance", "setting": "[1]", "value": "does not grow well"}]}, {"smiles": "CC(C)=O", "note": "[acetone]", "values": [{"measurement": "growth of strain ENV425 on the substance", "setting": "[1]", "value": "does occur"}]}, {"smiles": "CCOC(C)(C)C", "note": "[ETBE, ethyl-tert-butyl ether]", "values": [{"measurement": "% Degraded", "setting": "[7]; grown on isopropanol", "value": 14, "unit": "%"}, {"measurement": "% Degraded", "setting": "[7]; grown on propane", "value": 26, "unit": "%"}, {"measurement": "% Degraded", "setting": "[8]; grown on ethanol", "value": 31, "unit": "%"}, {"measurement": "% Degraded", "setting": "[8]; grown on propane", "value": 0, "unit": "%"}, {"measurement": "% Degraded", "setting": "[9]; grown on isopropanol", "value": 80, "unit": "%"}, {"measurement": "% Degraded", "setting": "[9]; grown on propane", "value": 100, "unit": "%"}]}, {"smiles": "CC(C)(C)O", "note": "[TBA, tertiary-butyl alcohol]", "values": [{"measurement": "% Degraded", "setting": "[7]; grown on isopropanol", "value": 0, "unit": "%"}, {"measurement": "% Degraded", "setting": "[7]; grown on propane", "value": 23, "unit": "%"}, {"measurement": "% Degraded", "setting": "[8]; grown on ethanol", "value": 56, "unit": "%"}, {"measurement": "% Degraded", "setting": "[8]; grown on propane", "value": 10, "unit": "%"}, {"measurement": "% Degraded", "setting": "[9]; grown on isopropanol", "value": 11, "unit": "%"}, {"measurement": "% Degraded", "setting": "[9]; grown on propane", "value": 45, "unit": "%"}, {"measurement": "degraded % of the added TBA", "setting": "[9]; propane-grown, within 24 hr", "value": 100, "unit": "%"}]}]}
